According to patent publication US9427439B1, “Methods and compositions for recovery from stroke” (EIP Pharma, LLC, priority 2015, dated 2016):

Legend:
[1] = test system: animal models of stroke; settings: administered 24-hours after stroke; cited from earlier work
[2] = brain distribution in pre-clinical studies; type: in vivo
From the text: The inhibition of MAPK by VX-745 blocks the downstream synthesis of inflammatory cytokines TNF-α and IL-1β. […] VX-745 preferentially distributes to the brain with drug concentrations in the brain in pre-clinical studies being approximately two-fold higher than in the blood. Stroke

[3] = test system: rat model of stroke (transient MCAO); experiment: tMCAO rat stroke model: Neuroscore (mNSS); type: in vivo; settings: Groups 2M (1.5 mg/kg) and 3M (4.5 mg/kg), PO twice a day from Day 3 to Day 42
Method: (§1) Group 1M: 20 tMCAO animals treated twice-a-day with vehicle from Day 3 (day 1 being day of stroke surgery) to Day 42 (via PO gavage)
(§2) Group 2M: 22 tMCAO animals treated twice-a-day with VX-745 (1.5 mg/kg) from Day 3 (day 1 being day of stroke surgery) to Day 42 (via PO gavage)
(§3) Group 3M: 21 tMCAO animals treated twice-a-day with VX-745 (4.5 mg/kg) from Day 3 (day 1 being day of stroke surgery) to Day 42 (via PO gavage)
(§4) Transient middle cerebral artery occlusion was performed according to the method described in R. Schmid-Elsaesser et al., Stroke, 29(10):2162-2170 (1998). The right Common Carotid Artery (CCA) was exposed through a midline neck incision and carefully dissected free from surrounding nerves and fascia—from its bifurcation to the base of the skull. The occipital artery branches of the ECA (External Carotid Artery) were then isolated, and these branches were dissected and coagulated. The ECA was dissected further distally and coagulated along with the terminal lingual and maxillary artery branches, which was then divided. The ICA (Internal Carotid Artery) was isolated and carefully separated from the adjacent vagus nerve, and the pterygopalatine artery was ligated close to its origin with a 5-0 nylon suture (SMI, Belgium). […]

[4] = test system: rat model of stroke (transient MCAO); experiment: tMCAO rat stroke model: stepping test; type: in vivo; settings: Groups 2M (1.5 mg/kg) and 3M (4.5 mg/kg), PO twice a day; Week 4 up to Week 6
Method: as §1, §2, §3
(§5) Transient middle cerebral artery occlusion was performed according to the method described in R. Schmid-Elsaesser et al., Stroke, 29(10):2162-2170 (1998). The right Common Carotid Artery (CCA) was exposed through a midline neck incision and carefully dissected free from surrounding nerves and fascia—from its bifurcation to the base of the skull. The occipital artery branches of the ECA (External Carotid Artery) were then isolated, and these branches were dissected and coagulated. […]
Animals were tested for forelimb akinesia in a stepping test (ST). The animal was held with its hind limbs fixed in one hand and the forelimb, not to be monitored, in the other, while the unrestrained fore-paw touches the table. The number of adjusting steps were counted while the animal was moved sideways along the table surface (85 cm during approximately five seconds), in the forehand & backhand direction for both forelimbs. […]

[5] = test system: rat model of stroke (transient MCAO); experiment: tMCAO rat stroke model: forelimb placement test; type: in vivo; settings: Groups 2M (1.5 mg/kg) and 3M (4.5 mg/kg), PO twice a day; Week 4 and Week 6
Method: as §1, §2, §3, §4

[6] = test system: rat model of stroke (transient MCAO); experiment: tMCAO rat stroke model: body swing test; type: in vivo
Method: as §1, §2, §3, §5
The rat was held approximately one inch from the base of its tail. […] A swing was recorded whenever the rat moved its head out of the vertical axis to either side. Before attempting another swing, the rat had must return to the vertical position for the next swing to be counted. Twenty (20) total swings were counted. […] Body swing scores were expressed as a percentage of rightward over total swings. […]

[7] = test system: IL-1β; experiment: IL-1β ELISA of brain at termination of tMCAO study; type: in vivo, rat; settings: right minus left hemisphere; Groups 2M and 3M versus 1M; n=18 per group
From the text: The brains of all animals were harvested on Day 44. Rats were sacrificed by CO2 inhalation. Brains were harvested from all animals in each group, divided to left and right hemisphere, weighed, and snap frozen.
Brains were harvested at study termination. Each brain was dissected into two hemispheres and each hemisphere was weighed and enclosed into tubes marked Left or Right. Each tube was immediately frozen in liquid nitrogen and stored at (−80)° C. The tissues were defrosted and homogenized in 1 ml/200 mg tissue of 20 mM Tris-HCL pH 7.4 containing a protease inhibitor cocktail (50 μl/ml). Samples were centrifuged at 10,000 g for 15 min at 4°. Clear supernatants were aliquoted (150 μl/aliquot) and stored at (−80)° C. until ELISA assays were performed. ELISA assay was executed according to kit instructions. Standards and samples were tested in duplicates.
Following study termination, animals were also tested for IL-1β brain levels using the ELISA system (see FIG. 8 for standard curves). The variability of the results was too large to allow definitive conclusions. All the results below the Lower Limit of Quantification (LLOQ) were assigned the LLOQ value of 5 pg/ml. Then, results for the uninjured left side were subtracted from the results of the right side. The distribution for individual rats is given in the figure below (n=18 in each of the study groups) (FIG. 9).

[8] = tMCAO study: body weight, clinical signs, mortality; type: in vivo, rat
Method: Altogether 76 adult male Sprague Dawley rats, purchased from Harlan Laboratories, (Israel), and weighing 300-350 g were used for the experiment. Animals were housed at a standard temperature (20-24° C.) and in a light-controlled environment (12 hours light/12 hours dark) with ad libitum access to food and water.
as §1, §2, §3
Animals were handled at a minimum for three days before the surgery. Baseline measures were taken before stroke was induced. Stroke surgery occurred on Day 1. On Day 2, 24 hours post-stroke surgery, Neuroscore testing was performed. Only animals reaching and exceeding Neuroscore criteria was included in the study. On Days 3-42, treatment with vehicle or VX-745 was administered twice a day for 40 days via PO (oral) gavage for all groups. Behavioral tests for all groups were conducted on weeks 4 and 6. Animals were sacrificed on Day 44 and brains were harvested.
Statistical analysis was performed when applicable by two-way ANOVA for repeated measures, followed by Bonferroni post-hoc tests for all the data presented in the results section (*p<0.05; **p<0.01; ***p<0.001).

[9] = test system: cytokine production (TNF-α and IL-1β) in whole blood; settings: inhibition of cytokine production (anti-inflammatory activity); cited from earlier work
[10] = test system: cytokine signaling; settings: cited from earlier work
[11] = treatment of rheumatoid arthritis; cited from earlier work
[12] = test system: IL-1β production and signaling; settings: cited from earlier work

SMILES	effect on recovery from neurologic deficit [1]	drug concentrations in the brain versus in the blood [2]	neuroscore delta (change from Day 2 to Week 4 or Week 6) versus vehicle control group 1M [3]	absolute neuroscore versus vehicle control group 1M ([3]; Weeks 4 and 6)	stepping test (left forelimb), number of steps versus vehicle control group 1M [4]	forelimb placement test score versus vehicle control group 1M [5]	body swing test (difference between left turn and right turn) versus vehicle control group 1M ([6]; Groups 2M (1.5 mg/kg) and 3M (4.5 mg/kg), PO twice a day)	body swing test, extent of recovery ([6]; particularly in the 4.5 mg/kg dose group)	IL-1β levels in the brain at study termination, between the groups [7]	body weight, differences between groups ([8]; all groups through the study, two-way ANOVA, Bonferroni)	rats that died after treatment initiation ([8]; group 2M (1.5 mg/kg), within two weeks of treatment initiation)	general clinical signs, differences between groups ([8]; tMCAO rats, 1.5 and 4.5 mg/kg PO twice a day)	whole blood IC50 [9]	IC50 for inhibition of cytokine signaling relative to IC50 for cytokine production [10]	mean blood concentration [11]	IL-1β production and signaling in vitro [12]
C[S+]([O-])c1ccc(-c2nc(-c3ccc(F)cc3)c(-c3ccncc3)[nH]2)cc1 (stereo not shown) [SB203850]	no significant effect	–	–	–	–	–	–	–	–	–	–	–	–	–	–	–
O=c1ncn2nc(Sc3ccc(F)cc3F)ccc2c1-c1c(Cl)cccc1Cl [VX-745]	–	approximately two-fold	statistically significant difference	statistically significant difference	statistically significant difference	Statistically significant differences	statistically significant difference	near normalization	No statistically significant differences	No statistically significant differences	one	no observed differences	0.065 to 0.08 µg/mL	half that for cytokine production	approximately 75 ng/mL	inhibits IL-1β production and signaling in vitro
